Assay results as given in PMC11459959, “Discovery of new acetamide derivatives of 5-indole-1,3,4-oxadiazol-2-thiol as inhibitors of HIV-1 Tat-mediated viral transcription” (Antimicrobial Agents and Chemotherapy, 2024).
Where two headings read alike, the source gives them in different places.

Columns and labels:
Type in all cases: cell-based
Cell viability of PBMCs = settings: human
Experimental: (§1) The p24 level from the cell supernatant was subsequently determined using a p24 […] kit (PerkinElmer). In parallel, the cell viability was determined without viral infection because of the viral cytopathic effect. […] In parallel, cell viability was determined. The data (A and B) are presented as the mean ± SD (n = 3). (C) PBMCs (4 × 10^5) infected with HIV-AD8 at an MOI of 0.1 were treated with 1.5 µM of the compounds or ARVs for 3 days. The levels of p24 and cell viability were subsequently determined. (D) J1.1 cells were cultured with the compounds ([…]) under 50 ng/mL phorbol myristate acetate (PMA) treatment for 2 days. The level of p24 was subsequently determined. (E) J-Lat 6.3 cells were treated with the compounds (1.5 µM) under 1 µg/mL of PMA for 2 days. The GFP-positive cell population was analyzed using flow cytometry. The data are represented as a value relative to the DMSO-treated vehicle (D) and a percent of the GFP^+ cell population (E) as mean ± SD (n = 3).
(§2) The inhibitory effects of the compounds on viral replication were determined with some minor modifications, as previously described ([12], [62]). […] PBMCs (4 × 10^5) pre-activated with PHA-M for 3 days were washed with fresh media to remove excess PHA-M and subsequently infected with HIV-1NL4-3 or HIV-1AD8 or PIs-resistant HIV-1 strains as A3.01 infection. After infection, the infectious media were replaced with fresh media supplemented with international 10 units (IU)/mL of IL-2 and the indicated compounds. At 72 h after infection, the inhibitory effect of the compounds on viral replication was determined by measuring the p24 amount, an HIV capsid protein, using an HIV-1 p24 […] kit (PerkinElmer, Waltham, MA, USA). Cell viability was determined as described above. The inhibitory effects on provirus reversing in J1.1 and J-Lat 6.3 cells were determined as previously described ([12], [41], [63]) with some minor modifications. Briefly, 5 × 10^4 persistently HIV-1-infected J1.1 or J-Lat 6.3 cells were cultured in either the presence or absence of the compounds at a final concentration of 1.5 µM and treated with PMA (50 ng/mL for J1.1 cells, 1 µg/mL for J-Lat 6.3 cells). Two days after treatment, the levels of viral production were determined using p24 […] for J1.1 cells and flow cytometry analysis for GFP-expressing J-Lat 6.3 cells.

HIV-1NL4-3 = experiment: HIV-1 replication in A3.01 cells (p24 […]); settings: for EC50: Human immunodeficiency virus 1, 72 h, HIV-1NL4-3 MOI 0.1, 3 days; for inhibition of viral replication (in words): fivefold serial dilutions, 3 days
Experimental: as §1, §2

[1] = tested on: general cellular transcription/translation (R-Luc); experiment: Dual-reporter assay, R-Luc in bl-DTR cells; settings: doxycycline, 24 h
Experimental: Fig 1 (A) (Top panel) Schematic representation of the primary compound screening using a dual-reporter system. […] (B). […] (Top graphs) bl-DTR cells (1 × 10^4) were treated with twofold serial dilutions of each compound before doxycycline (Dox) addition (final concentration, 50 ng/mL). After 24 h of treatment, the activities of firefly luciferase (F-Luc, red line) and Renilla luciferase (R-Luc, blue line) were determined using the Dual-Glo Luciferase assay system. (Bottom graphs) TZM-bl cells were treated with each indicated compound and subsequently infected with the HIV-1NL4-3 strain at a multiplicity of infection (MOI) of 1. At 48 h after infection, the viral infectivity (purple line) and cell viability (green line) were determined using the Bright-Glo luciferase assay kit and the PrestoBlue Cell Viability Reagent, respectively. […] (C). […] The targeted moieties for the SAR study are marked with dotted-circle lines.
The Tzm-bl-derived dual Tat reporter; TZM-bl/Tat/Rluc (bl-DTR) cells were established from TZM-bl cells using two Dox-inducible lentiviral expression cassettes cloned with Flag-tagged Tat86 and the R-Luc gene, as described in our previous study ([11]). TZM-bl, A3.01, J1.1, and J-Lat 6.3 cells as well as the HIV-1 molecular clone pNL4-3, pNL(AD8), ARV-resistant HIV-1 strains, and HIV-1NL43-IRES-eGFP (pBR43IeG-nef^+, gifted by Dr. Frank Kirchhoff) ([52]) were provided by the National Institute of Health HIV Reagent Program (NIH, Bethesda, MD, USA). HeLa (CCL-2) and 293T (CRL-3216) cell lines were purchased from the American Type Culture Collection (ATCC, Manassas, VA, USA). The bl-DTR, TZM-bl, HeLa, and 293T cells were cultured in Dulbecco’s modified Eagle’s medium supplemented with 1% penicillin–streptomycin and 10% (vol/vol) heat-inactivated fetal bovine serum (all from Gibco-BRL, Gaithersburg, MD, USA), and 1 µg/mL of puromycin and 200 µg/mL of zeocin were additionally supplemented for the bl-DTR cells. PBMCs were purchased from AllCells (Alameda, CA, USA) and cultured as previously described ([12]). The information on ARV-resistant HIV-1 strains was described in previous reports as follows: NNRTI-resistant 12241 and 12243 ([53]); NRTI-resistant 7396, 7406, and 7407 ([54]); INSTI-resistant 11847 and 11849 ([55], [56]); and PI-resistant 11800 and 11803 ([57]). Each molecular HIV-1 clone was transfected to 293T cells, as previously described ([58]), to obtain infectious HIV-1 particles. Virus-containing cell culture supernatants were collected 3 days after transfection, and filtered through a 0.45-µm membrane filter (Millipore Sigma, Burlington, MA, USA) to remove cell debris. The viral titration was performed as described previously ([59]) with some minor modifications. In brief, 1 × 10^4 TZM-bl cells seeded in 96-well plates were infected with 200 µL of virus-containing medium diluted serially twofold. The incubation was for 2 days and the experiment was performed in triplicate; the infection time minimized the virus spread ([59]). The titration of the infectious viral particles was performed with a ß-Gal staining assay using the ßeta-Galactosidase Staining Kit (Mirus Bio, Madison, WI, USA) following the manufacturer’s protocols. In brief, the infected cells were washed with phosphate-buffered saline (PBS) and fixed using a Cell Fixative Working solution. The cells were washed with PBS and stained using the Cell Staining Working Solution containing X-gal. The infected blue-colored cells were counted under a microscope (100× magnification). The infectious virus titer was determined as a mean value of blue-colored cells count × dilution factor and used for determining the multiplicity of infection (MOI) in each infection experiment.

[2] = PBMCs, absence of HIV-1 infection, mean ± SD, read-out: CC50

Compound | CC50 at 3 days (Cell viability of PBMCs) [nM] | SI (CC50/EC50) (HIV-1NL4-3) | EC50 (HIV-1NL4-3; p24, mean ± SD) [nM] | inhibition of viral replication (in words) (HIV-1NL4-3) | Relative R-Luc activity at IC50 of F-Luc [1] | CC50 at 3 days (Cell viability of PBMCs; [2]) [nM] | EC50 (HIV-1NL4-3; p24) [nM]
Cc1[nH]c2ccc(-c3nnc(SCC(=O)N4CCCC4)o3)cc2c1C [Compound 13, 2-((5-(2,3-Dimethyl-1H-indol-5-yl)-1,3,4-oxadiazol-2-yl)thio)-1-(pyrrolidin-1-yl)ethan-1-one] | 45200 ± 5690 | 93.29 | 510 ± 210 | inhibited the viral replication | >100 | – | –
Cc1[nH]c2ccc(-c3nnc(SCC(=O)N4CCCCC4)o3)cc2c1C [Compound 9, 2-((5-(2,3-Dimethyl-1H-indol-5-yl)-1,3,4-oxadiazol-2-yl)thio)-1-(piperidin-1-yl)ethan-1-one] | 44100 ± 3710 | 224.40 | 250 ± 60 | inhibited the viral replication | >100 | – | –
CC(C)[C@]12O[C@H]1[C@@H]1O[C@]13[C@]1(O[C@H]1C[C@H]1C4=C(CC[C@@]13C)C(=O)OC4)[C@@H]2O [triptolide, reference compound] | – | 54.05 | – | – | >100 | 190 | 4.07 ± 2.3
C[C@@H]1CCO[C@H]2Cn3cc(C(=O)NCc4ccc(F)cc4F)c(=O)c(O)c3C(=O)N12 [DTG, dolutegravir, reference compound] | 18300 ± 580 | >7,670 | – | – | – | – | < 1
O=C1Nc2ccc(Cl)cc2[C@@](C#CC2CC2)(C(F)(F)F)O1 [EFV, efavirenz, reference compound] | – | >22,740 | – | – | – | 29500 ± 3620 | < 1
